Legend:
[1] = biological target: Baculoviral IAP repeat-containing protein 2 (cIAP1, BIRC2, Homo sapiens) (UniProt Q13490); assay: Inhibition of cIAP1 BIR3 (154 to 352 residues) (unknown origin) by fluoresceinated dimeric SMAC peptide based fluorescence polarization assay
[2] = biological target: E3 ubiquitin-protein ligase XIAP (BIRC4, Homo sapiens) (UniProt P98170); assay: Inhibition of XIAP BIR2-3 (125 to 356 residues) C202A/C213G mutant (unknown origin) fluoresceinated dimeric SMAC peptide based fluorescence polarization assay
E3 ubiquitin-protein ligase XIAP (BIRC4, Homo sapiens), sequence (P98170 whole entry, looked up, the tested form may be a part): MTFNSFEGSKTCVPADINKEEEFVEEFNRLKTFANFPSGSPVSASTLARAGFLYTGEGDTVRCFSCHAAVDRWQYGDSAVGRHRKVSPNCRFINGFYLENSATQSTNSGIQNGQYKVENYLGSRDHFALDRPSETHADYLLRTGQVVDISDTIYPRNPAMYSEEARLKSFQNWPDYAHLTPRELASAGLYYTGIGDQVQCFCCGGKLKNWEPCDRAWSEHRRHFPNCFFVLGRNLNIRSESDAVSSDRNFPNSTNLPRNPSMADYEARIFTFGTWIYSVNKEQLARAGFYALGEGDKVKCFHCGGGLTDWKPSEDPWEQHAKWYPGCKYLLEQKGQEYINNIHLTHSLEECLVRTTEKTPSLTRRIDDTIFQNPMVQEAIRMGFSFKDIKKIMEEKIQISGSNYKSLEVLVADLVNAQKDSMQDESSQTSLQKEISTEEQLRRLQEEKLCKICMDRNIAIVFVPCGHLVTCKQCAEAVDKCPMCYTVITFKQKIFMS

Baculoviral IAP repeat-containing protein 2 (cIAP1, BIRC2, Homo sapiens), sequence (Q13490 whole entry, looked up, the tested form may be a part): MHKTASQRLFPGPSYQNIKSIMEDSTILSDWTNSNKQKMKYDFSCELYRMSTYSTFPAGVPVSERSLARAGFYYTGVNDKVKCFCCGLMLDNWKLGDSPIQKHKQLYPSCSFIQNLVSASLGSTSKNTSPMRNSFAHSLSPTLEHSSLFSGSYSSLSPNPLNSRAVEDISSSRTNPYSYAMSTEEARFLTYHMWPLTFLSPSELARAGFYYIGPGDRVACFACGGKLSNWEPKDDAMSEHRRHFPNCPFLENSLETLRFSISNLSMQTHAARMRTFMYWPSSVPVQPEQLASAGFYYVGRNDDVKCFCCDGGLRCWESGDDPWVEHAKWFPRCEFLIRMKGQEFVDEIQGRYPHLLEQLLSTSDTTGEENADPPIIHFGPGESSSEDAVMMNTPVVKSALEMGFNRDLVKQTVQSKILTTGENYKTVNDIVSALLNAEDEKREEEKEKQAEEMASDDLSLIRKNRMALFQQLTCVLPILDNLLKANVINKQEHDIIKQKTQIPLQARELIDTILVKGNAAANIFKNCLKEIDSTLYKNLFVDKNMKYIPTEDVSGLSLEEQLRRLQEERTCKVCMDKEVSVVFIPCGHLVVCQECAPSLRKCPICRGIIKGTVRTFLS

IC50 [1] [nM]	IC50 [2] [nM]	EC50 [1] [nM]	Structure (SMILES)
11			CN[C@@H](C)C(=O)N[C@H](C(=O)N1C[C@@H]2C[C@H]1C(=O)N[C@@H](Cc1ccccc1)C(=O)N[C@H](C(=O)O)Cc1ccc(cc1)OCc1cn(nn1)[C@H]1C[C@@H](C(=O)N[C@@H](Cc3ccccc3)C(=O)N[C@H](C(=O)O)Cc3ccc(cc3)OCc3cn2nn3)N(C(=O)[C@@H](NC(=O)[C@H](C)NC)C(C)C)C1)C(C)C
8			CN[C@@H](C)C(=O)N[C@H](C(=O)N1C[C@@H]2C[C@H]1C(=O)N[C@@H](Cc1ccccc1)C(=O)N[C@H](C(=O)O)Cc1ccc(cc1)NC(=O)CCc1cn(nn1)[C@H]1C[C@@H](C(=O)N[C@@H](Cc3ccccc3)C(=O)N[C@H](C(=O)O)Cc3ccc(cc3)NC(=O)CCc3cn2nn3)N(C(=O)[C@@H](NC(=O)[C@H](C)NC)C(C)C)C1)C(C)C

Continued, compound first:

Structure (SMILES)	IC50 [1] [nM]	IC50 [2] [nM]	EC50 [1] [nM]
CN[C@@H](C)C(=O)N[C@H](C(=O)N1C[C@@H]2C[C@H]1C(=O)N[C@@H](Cc1ccc3ccccc3c1)C(=O)N[C@H](C(=O)O)Cc1ccc(cc1)OCc1cn(nn1)[C@H]1C[C@@H](C(=O)N[C@@H](Cc3ccc4ccccc4c3)C(=O)N[C@H](C(=O)O)Cc3ccc(cc3)OCc3cn2nn3)N(C(=O)[C@@H](NC(=O)[C@H](C)NC)C(C)C)C1)C(C)C	17		
CN[C@@H](C)C(=O)N[C@H](C(=O)N1C[C@@H]2C[C@H]1C(=O)N[C@@H](Cc1cccc3ccccc13)C(=O)N[C@H](C(=O)O)Cc1ccc(cc1)OCc1cn(nn1)[C@H]1C[C@@H](C(=O)N[C@@H](Cc3cccc4ccccc34)C(=O)N[C@H](C(=O)O)Cc3ccc(cc3)OCc3cn2nn3)N(C(=O)[C@@H](NC(=O)[C@H](C)NC)C(C)C)C1)C(C)C	17		
CN[C@@H](C)C(=O)N[C@H](C(=O)N1C[C@@H]2C[C@H]1C(=O)N[C@@H](Cc1ccc3ccccc3c1)C(=O)N[C@H](C(=O)O)Cc1cn(nn1)[C@H]1C[C@@H](C(=O)N[C@@H](Cc3ccc4ccccc4c3)C(=O)N[C@H](C(=O)O)Cc3cn2nn3)N(C(=O)[C@@H](NC(=O)[C@H](C)NC)C(C)C)C1)C(C)C	10	9	
CN[C@@H](C)C(=O)N[C@H](C(=O)N1C[C@@H]2C[C@H]1C(=O)N[C@@H](Cc1ccccc1)C(=O)N[C@H](C(=O)O)Cc1ccc(cc1)NC(=O)CCc1cn2nn1)C(C)C			36
CN[C@@H](C)C(=O)N[C@H](C(=O)N1C[C@@H]2C[C@H]1C(=O)N[C@@H](Cc1ccccc1)C(=O)N[C@H](C(=O)O)Cc1ccc(cc1)OCc1cn2nn1)C(C)C			20
